Target: recombinant human MGAT2 (Homo sapiens (Human), UniProt Q3SYC2)
Assay: Measurement of human MGAT2 inhibitory activity
Format: biochemical
Settings: recombinant human MGAT2 membrane fraction (Sf-9); 2-Oleoylglycerol and Oleoyl-CoA substrates; 1 hour at room temperature; Diolein detected by RapidFire Q-TOF MS
Excerpt: A full-length human MGAT2 gene to which a Flag-tag had been added at the N-terminal was inserted into pFastBac (from Invitrogen). A recombinant baculovirus was produced in accordance with the protocol for a Bac-to-Bac baculovirus expression system (produced by Invitrogen), and Sf-9 cells were infected therewith. The cells were collected and sonicated, and then the membrane fraction was collected through centrifugation.
Solutions of the compounds of the present invention in DMSO were each aliquoted into 0.2-μL portions in a 384-well polystyrene microplate produced by Corning Incorporated, and 5 μL of an enzyme solution prepared with an assay buffer (100 mmol/L phosphate buffer (pH 7.4) containing 2 mmol/L DTT) and 5 μL of a substrate solution (100 mmol/L phosphate buffer (pH 7.4), 30 μmol/L 2-Oleoylglycerol, 10 μmol/L Oleoyl-CoA) were added thereto, and the resultant was stirred and centrifuged, and incubated in a moist chamber at room temperature for 1 hour. […] Diolein as a reaction product (P) of 2-Oleoylglycerol as the substrate and an ammonium adduct ion of the IS were detected, and the peak intensity ratio, P/IS, was calculated from the peak heights to evaluate the inhibitory activity. […] The inhibitory activity was calculated from the formula below with TIBCO Spotfire (produced by TIBCO Software Inc.): Inhibitory activity (%)=[1−{Sample−Control(−)}/{Control(+)−Control(−))}]*100 where Sample indicates a peak intensity ratio: P/IS, when the compound of the present invention was added.

Chain of recombinant human MGAT2 (Q3SYC2 whole entry): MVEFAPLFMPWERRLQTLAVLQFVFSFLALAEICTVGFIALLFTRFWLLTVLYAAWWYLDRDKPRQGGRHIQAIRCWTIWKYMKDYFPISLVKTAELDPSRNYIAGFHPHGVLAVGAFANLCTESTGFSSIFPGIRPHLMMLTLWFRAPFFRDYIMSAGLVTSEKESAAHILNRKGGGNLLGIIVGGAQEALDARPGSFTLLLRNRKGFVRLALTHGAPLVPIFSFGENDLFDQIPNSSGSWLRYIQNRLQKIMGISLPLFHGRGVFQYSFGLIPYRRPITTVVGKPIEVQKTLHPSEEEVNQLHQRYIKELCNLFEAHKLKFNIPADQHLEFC

| SMILES | IC50 |
| --- | --- |
| CC(=O)NCC1=C(c2ccc(C(C)(C)O)cn2)C[C@](c2ccc(OCCCC(F)(F)F)cc2)(C(F)(F)F)NC1=O [Compound I-42] | 10 nM |
| CC(C)c1ccc(C2=C(CNC(=O)CC(=O)O)C(=O)N[C@@](c3ccc(OCCCC(F)(F)F)cc3)(C(F)(F)F)C2)nc1 [Compound I-55] | 160 nM |
| CS(=O)(=O)CC(=O)NCC1=C(c2ccc(OC(F)F)cn2)C[C@](c2ccc(Br)cc2)(C(F)(F)F)NC1=O [Compound I-78] | 25 nM |
| CC(C)(O)c1ccc(C2=C(CNC(=O)CS(C)(=O)=O)C(=O)N[C@@](c3ccc(OCCCC(F)(F)F)cc3)(C(F)(F)F)C2)nc1 [Compound I-47] | 0.73 nM |
| CS(=O)(=O)CC(=O)NCC1=C(c2ccc(OC(F)F)cn2)C[C@](c2ccc(C3=CCOCC3)cc2)(C(F)(F)F)NC1=O [Compound I-101] | 42 nM |
| CS(=O)(=O)C1(C(=O)NCC2=C(c3ccc(C(F)F)cn3)C[C@](c3ccc(OCCCC(F)(F)F)cc3)(C(F)(F)F)NC2=O)CC1 [Compound I-81] | 140 nM |
| Cc1ccc(C2=C(CNC(=O)CS(C)(=O)=O)C(=O)N[C@@](c3ccc(OCCCC(F)(F)F)cc3)(C(F)(F)F)C2)nc1 [Compound I-10] | < 4.6 nM |
| Cc1ccc(C2=C(CNC(=O)CC(F)(F)F)C(=O)N[C@@](c3ccc(OCCCC(F)(F)F)cc3)(C(F)(F)F)C2)nc1 [Compound I-26] | 2.3 nM |
| CS(=O)(=O)CC(=O)NCC1=C(c2ccc(C(F)F)cn2)C[C@](c2ccc(OCC(F)(F)F)cc2)(C(F)(F)F)NC1=O [Compound I-91] | 6.8 nM |
| COc1ccc(C2=C(CNC(=O)OC(C)C)C(=O)N[C@@](c3ccc(OCCCC(F)(F)F)cc3)(C(F)(F)F)C2)nc1 [Compound I-33] | 340 nM |
| Cc1ccc(C2=C(CNS(=O)(=O)CC#N)C(=O)N[C@@](c3ccc(OCCCC(F)(F)F)cc3)(C(F)(F)F)C2)nc1 [Compound I-28] | 100 nM |
| COc1ccc(C2=C(CNC(=O)C3CC(=O)C3)C(=O)N[C@@](c3ccc(OCCCC(F)(F)F)cc3)(C(F)(F)F)C2)nc1 [Compound I-24] | 40 nM |
| CS(=O)(=O)CC(=O)NCC1=C(c2ccc(OC(F)F)cn2)C[C@](c2ccc(-c3ccccc3)cc2)(C(F)(F)F)NC1=O [Compound I-99] | 26 nM |
| CS(=O)(=O)CC(=O)NCC1=C(c2ccc(OC(F)F)cn2)C[C@](c2ccc(C(F)(F)F)cc2)(C(F)(F)F)NC1=O [Compound I-108] | 46 nM |
| O=C(CC(F)(F)F)NCC1=C(c2ccc(C(F)F)cn2)C[C@](c2ccc(OCCCC(F)(F)F)cc2)(C(F)(F)F)NC1=O [Compound I-112] | 3.8 nM |
| C=C(C)c1ccc(C2=C(CNC(=O)CS(C)(=O)=O)C(=O)N[C@@](c3ccc(OCCCC(F)(F)F)cc3)(C(F)(F)F)C2)nc1 [Compound I-72] | 1 nM |
| COC(=O)NCC1=C(c2ccc(C)cn2)C[C@](c2ccc(OCCCC(F)(F)F)cc2)(C(F)(F)F)NC1=O [Compound I-7] | 150 nM |
| Cc1ccc(C2=C(CNC(=O)CC#N)C(=O)N[C@@](c3ccc(OCCCC(F)(F)F)cc3)(C(F)(F)F)C2)nc1 [Compound I-30] | 12 nM |
| CS(=O)(=O)CC(=O)NCC1=C(c2ncc(C3CC3)s2)C[C@](c2ccc(OCCCC(F)(F)F)cc2)(C(F)(F)F)NC1=O [Compound I-69] | 43 nM |
| CC(=O)NCC1=C(c2ccc(C(F)F)cn2)C[C@](c2ccc(OCCCC(F)(F)F)cc2)(C(F)(F)F)NC1=O [Compound I-58] | 34 nM |
| CS(=O)(=O)CC(=O)NCC1=C(c2ccc(OC(F)F)cn2)C[C@](c2ccc(C3CC3)cc2)(C(F)(F)F)NC1=O [Compound I-95] | 17 nM |
| CS(=O)(=O)CC(=O)NCC1=C(c2ccc(OC(F)F)cn2)C[C@](c2ccc(OCCCC(F)(F)F)cc2)(C(F)(F)F)NC1=O [Compound I-57] | 0.62 nM |
| CC(C)c1ccc(C2=C(CNC(=O)CO)C(=O)N[C@@](c3ccc(OCCCC(F)(F)F)cc3)(C(F)(F)F)C2)nc1 [Compound I-60] | 27 nM |
| Cc1ccc(C2=C(CNC(=O)CO)C(=O)N[C@@](c3ccc(OCCCC(F)(F)F)cc3)(C(F)(F)F)C2)nc1 [Compound I-31] | 70 nM |
| COc1ccc(C2=C(CNC(=O)C3CCC3)C(=O)N[C@@](c3ccc(OCCCC(F)(F)F)cc3)(C(F)(F)F)C2)nc1 [Compound I-15] | 10 nM |
| CS(=O)(=O)CC(=O)NCC1=C(c2ccc(Br)cn2)C[C@@](c2ccc(OCCCC(F)(F)F)cc2)(C(F)(F)F)NC1=O [Compound I-71] | 940 nM |
| COc1ccc(C2=C(CNC(=O)C3COC3)C(=O)N[C@@](c3ccc(OCCCC(F)(F)F)cc3)(C(F)(F)F)C2)nc1 [Compound I-36] | 53 nM |
| COc1ccc(C2=C(CNC(=O)C(C)(C)O)C(=O)N[C@@](c3ccc(OCCCC(F)(F)F)cc3)(C(F)(F)F)C2)nc1 [Compound I-41] | 75 nM |

| SMILES | IC50 |
| --- | --- |
| CC(C(=O)NCC1=C(c2ccc(C(F)F)cn2)C[C@](c2ccc(OCCCC(F)(F)F)cc2)(C(F)(F)F)NC1=O)S(C)(=O)=O (stereo partly shown) [Compound I-83] | 22 nM |
| COc1ccc(C2=C(CNC(=O)CO)C(=O)N[C@@](c3ccc(OCCCC(F)(F)F)cc3)(C(F)(F)F)C2)nc1 [Compound I-40] | 43 nM |
| COc1ccc(C2=C(CNC(=O)CC#N)C(=O)N[C@@](c3ccc(OCCCC(F)(F)F)cc3)(C(F)(F)F)C2)nc1 [Compound I-37] | 28 nM |
| CC(C)(C#N)C(=O)NCC1=C(c2ccc(C(C)(C)O)cn2)C[C@](c2ccc(OCCCC(F)(F)F)cc2)(C(F)(F)F)NC1=O [Compound I-52] | 3.1 nM |
| COC/C=C/c1ccc([C@]2(C(F)(F)F)CC(c3ccc(OC(F)F)cn3)=C(CNC(=O)CS(C)(=O)=O)C(=O)N2)cc1 [Compound I-102] | 21 nM |
| CC1(C(=O)NCC2=C(c3ccc(C(F)F)cn3)C[C@](c3ccc(OCCCC(F)(F)F)cc3)(C(F)(F)F)NC2=O)CNC1 [Compound I-66] | 410 nM |
| COc1ccc(C2=C(CNC(=O)C3CS(=O)(=O)C3)C(=O)N[C@@](c3ccc(OCCCC(F)(F)F)cc3)(C(F)(F)F)C2)nc1 [Compound I-46] | 62 nM |
| CS(=O)(=O)CC(=O)NCC1=C(c2ccc(OC(F)F)cn2)C[C@](c2ccc(OCC(F)F)cc2)(C(F)(F)F)NC1=O [Compound I-105] | 9.2 nM |
| Cn1cc(-c2ccc([C@]3(C(F)(F)F)CC(c4ccc(OC(F)F)cn4)=C(CNC(=O)CS(C)(=O)=O)C(=O)N3)cc2)cn1 [Compound I-98] | 70 nM |
| CC(C)(C(=O)NCC1=C(c2ccc(C(F)F)cn2)C[C@](c2ccc(OCCCC(F)(F)F)cc2)(C(F)(F)F)NC1=O)S(C)(=O)=O [Compound I-80] | 990 nM |
| COc1ccc(C2=C(CNC(=O)CS(C)(=O)=O)C(=O)N[C@@](c3ccc(OCCCC(F)(F)F)cc3)(C(F)(F)F)C2)nc1 [Compound I-12] | 2.5 nM |
| CS(=O)(=O)CC(=O)NCC1=C(c2ccc(C(F)F)cn2)C[C@](c2ccc(C(F)(F)F)cc2)(C(F)(F)F)NC1=O [Compound I-75] | 78 nM |
| COc1ccc(C2=C(CNC(=O)c3ccno3)C(=O)N[C@@](c3ccc(OCCCC(F)(F)F)cc3)(C(F)(F)F)C2)nc1 [Compound I-17] | 7.6 nM |
| Cc1ccc(C2=C(CNC(=O)C3CC3)C(=O)N[C@@](c3ccc(OCCCC(F)(F)F)cc3)(C(F)(F)F)C2)nc1 [Compound I-8] | 13 nM |
| Cc1ccc(C2=C(CNS(C)(=O)=O)C(=O)N[C@@](c3ccc(OCCCC(F)(F)F)cc3)(C(F)(F)F)C2)nc1 [Compound I-3] | 120 nM |
| CC(=O)NCC1=C(c2ccc(C)cn2)C[C@](c2ccc(OCCCC(F)(F)F)cc2)(C(F)(F)F)NC1=O [Compound I-4] | 32 nM |
| CC(C)c1ccc(C2=C(CNC(=O)C3COC3)C(=O)N[C@@](c3ccc(OCCCC(F)(F)F)cc3)(C(F)(F)F)C2)nc1 [Compound I-53] | 11 nM |
| CS(=O)(=O)CC(=O)NCC1=C(c2ccc(C(F)F)cn2)CC(c2ccc(Br)cc2F)(C(F)(F)F)NC1=O (stereo not shown) [Compound I-111] | 33 nM |
| CS(=O)(=O)CC(=O)NCC1=C(c2ccc(C(F)F)cn2)C[C@](c2ccc(CCC(F)(F)F)cc2)(C(F)(F)F)NC1=O [Compound I-86] | 1.9 nM |
| CS(=O)(=O)CC(=O)NCC1=C(c2ccc(C(F)F)cn2)C[C@](c2ccc(C3CC3)cc2)(C(F)(F)F)NC1=O [Compound I-88] | 21 nM |
| O=C1N[C@@](c2ccc(OCCCC(F)(F)F)cc2)(C(F)(F)F)CC(c2ccc(C(F)F)cn2)=C1CNC(=O)C1CNC1 [Compound I-65] | 280 nM |
| CC(=O)NCC1=C(c2ncc(C3CC3)s2)C[C@](c2ccc(OCCCC(F)(F)F)cc2)(C(F)(F)F)NC1=O [Compound I-68] | 440 nM |
| O=C1N[C@@](c2ccc(OCCCC(F)(F)F)cc2)(C(F)(F)F)CC(c2ccc(C(F)F)cn2)=C1CNC(=O)C1(F)CNC1 [Compound I-67] | 40 nM |
| COc1ccc(C2=C(CNC(=O)CC(C)(C)C)C(=O)N[C@@](c3ccc(OCCCC(F)(F)F)cc3)(C(F)(F)F)C2)nc1 [Compound I-16] | 52 nM |
| CC(=O)NCC1=C(c2ccc(Br)cn2)C[C@](c2ccc(OCCCC(F)(F)F)cc2)(C(F)(F)F)NC1=O [Compound I-49] | 140 nM |
| CS(=O)(=O)CC(=O)NCC1=C(c2ccc(OC(F)F)cn2)C[C@](c2ccc(OCC(F)(F)F)cc2)(C(F)(F)F)NC1=O [Compound I-114] | 4.1 nM |
| CC(=O)NCC1=C(c2ccc(C(C)C)cn2)C[C@](c2ccc(OCCCC(F)(F)F)cc2)(C(F)(F)F)NC1=O [Compound I-35] | 18 nM |

— patent publication US10335401B2, “Non-aromatic heterocyclic derivative having MGAT2 inhibitory activity” (Shionogi & Co., Ltd., priority 2015, dated 2019)
